Source: patent publication US5298523A, “Method for treating transplant patients using mycalamide compounds” (priority 1992, dated 1994)

What was measured:
murine CD4^+ T cells = assay: Activation of CD4+ T cells by anti-CD3 mAb/mB7; format: cell-based, murine (BALB/c)
Method: (A) Costimulation of T cells with anti-CD3 mAb and mB7. […] (B) Costimulation of T cells with mB7 and PMA. […] All cultures were incubated for 48 hours and pulsed with 1 μCi [ ^3 H] thymidine/well for the last 6 hours of the incubation period to assay for T cell proliferation.
(§1) (A) Costimulation of T cells with anti-CD3 mAb and mB7. 2×10^5 purified BALB/c CD4^+ T lymphocytes were stimulated with the indicated concentrations of anti-CD3 mAb in the presence of medium (.largecircle.), 2×10^4 paraformaldehyde-fixed CHO-mB7 cells (.quadrature.), or 2×10^4 paraformaldehyde-fixed CHO-mB7 cells in the presence of 0.1 nM FK506 (.gradient.), 1 nM FK506 (Δ), or 10 nM FK506 ( ). (B) Costimulation of T cells with mB7 and PMA. 2×10^5 purified BALB/c CD4^+ T lymphocytes were stimulated with the indicated concentrations of PMA and either medium (.largecircle.), 2×10^4 paraformaldehyde-fixed CHO-mB7 cells (.quadrature.), or paraformaldehyde-fixed CHO-mB7 cells in the presence of 0.1 nM FK506 (.gradient.), 1 nM FK506 (Δ), or 10 nM FK506 ( ). All cultures were incubated for 48 hours and pulsed with 1 μCi [^3 H] thymidine/well for the last 6 hours of the incubation period to assay for T cell proliferation.
as §1, with “pM mycalamide A” for “nM FK506”
mB7-mediated activation of murine CD4^+ T cells. Mouse T cells were purified as follows: splenocytes were depleted of red blood cells by treatment with Tris-NH4 Cl. T cells were enriched by nylon wool fractionation. CD4^+ T cells from BALB/c mice were purified by two-fold treatment with a mixture of anti-MHC Class II and anti-CD8 monoclonal antibodies and rabbit complement. Chinese hamster ovary cells (CHO) and CHO cells transfected with the murine B7 molecule (CHOmB7) were fixed with 1% paraformaldehyde prior to addition to the cultures. Microcultures were set up in duplicate 96-well plates. […] All cultures were incubated for 48 hours and pulsed with 1 μCi ^3 H-thymidine/well for the last 6 hours of the incubation period to assay for T cell proliferation.

[1] = test system: graft vs. host reaction, CB6F1 mice grafted with BALB/c splenocytes; assay: Graft vs. host reaction (Simonsen splenomegaly assay); format: in vivo, mouse; details: for % Suppression / Number of surviving mice at the end of the experiment / Stim. index: Days 1-7
Method: Graft vs. host reaction. In vivo studies with mycalamide A utilized the […]→F1, GVHR model (Simonsen splenomegaly assay). CB6F1 male mice, 4 weeks of age, were injected intraperitoneally with 5×10^7 splenocytes from BALB/c male mice, 8 weeks of age, on day 0 (BALB/c→CB6F1). A syngeneic control group (CB6F1 →CB6F1) was similarly prepared and served as the negative control. For experiment 1, the grafted mice were divided into 5 treatment groups of 5 mice each. Groups were injected intraperitoneally with mycalamide A (dissolved initially in ethanol followed by dilution in sterile phosphate-buffered saline as a vehicle) or vehicle alone on days 1-7. For experiment 2, the grafted mice were divided into 7 treatment groups of 5 mice each and similarly injected intraperitoneally with mycalamide A, an immunosuppressive standard, didemnin B, or vehicle alone on days 1-7. On day 7 all groups were sacrificed, spleens excised, and the mean spleen weight and stimulation index calculated for each group. The stimulation index was calculated as follows: [formula] A spleen index of 1.3 or greater is considered a positive response.
^a CB6F1 mice (5 per group) were grafted with 5 × 10^7
BALB/c splenocytes, intraperitoneally on Day 0. Groups were injected
intraperitoneally with drug or vehicle on Days 1-7. Positive indicates
grafted mice receiving vehicle alone.
^b Number of surviving mice at the end of the experiment.
^c Stimulation index (SI) = (spleen weight of test group/body weight
of test group)/(spleen weight of syngeneic group/body weight of syngeneic
^d Suppression = [(SI of positive control) (SI of test group)]/[(SI
of positive control) (SI of syngeneic group)].
^e Didemnin B immunosuppressive standard.

[2] = Experiment #2, 0.005 mg/kg i.p.

C=C1CC(OC)(C(O)C(=O)NC2OCOC3C2OC(CC(O)CO)C(C)(C)C3OC)OC(C)C1C (centres unmarked) [Mycalamide A, mycalamide A]
effect on anti-CD3/mB7 activation of CD4+ cells (murine CD4^+ T cells; anti-CD3/mB7, in words): blocks activation | times more potent than FK506 (murine CD4^+ T cells; immunosuppressive activity vs FK506): 10 times | times more potent than cyclosporin A (murine CD4^+ T cells; immunosuppressive activity vs cyclosporin A): approximately 1000 times | suppressive activity compared with FK506 or CsA (murine CD4^+ T cells; in words): superior to FK506 or CsA | % Suppression ([1]; Experiment #1, 0.01 mg/kg i.p.): 102% | Number of surviving mice at the end of the experiment ([1]; Experiment #1, 0.01 mg/kg i.p.): 5/5 | Stim. index ([1]; Experiment #1, 0.01 mg/kg i.p.): 0.99 | % Suppression ([1]; Experiment #1, 0.05 mg/kg i.p.): 0% | Number of surviving mice at the end of the experiment ([1]; Experiment #1, 0.05 mg/kg i.p.): 0/5 | % Suppression ([1]; Experiment #1, 0.1 mg/kg i.p.): 0% | Number of surviving mice at the end of the experiment ([1]; Experiment #1, 0.1 mg/kg i.p.): 0/5 | % Suppression [1, 2]: 0% | Number of surviving mice at the end of the experiment [1, 2]: 5/5 | Stim. index [1, 2]: 1.92 | % Suppression ([1]; Experiment #2, 0.01 mg/kg i.p.): 88% | Number of surviving mice at the end of the experiment ([1]; Experiment #2, 0.01 mg/kg i.p.): 5/5 | Stim. index ([1]; Experiment #2, 0.01 mg/kg i.p.): 1.06 | % Suppression ([1]; Experiment #2, 0.05 mg/kg i.p.): 0% | Number of surviving mice at the end of the experiment ([1]; Experiment #2, 0.05 mg/kg i.p.): 0/5 | % Suppression ([1]; Experiment #2, 0.1 mg/kg i.p.): 0% | Number of surviving mice at the end of the experiment ([1]; Experiment #2, 0.1 mg/kg i.p.): 0/5 | toxicity in mice ([1]; dosages higher than 0.01 mg/kg i.p., in words): toxic | immunosuppression in GVHR ([1]; dosages lower than 0.01 mg/kg i.p., in words): not immunosuppressive
